Assay results taken from patent publication US12428428B2, “Tricyclic tetrahydroisoquinoline derivative, preparation method therefor and application thereof in medicine” (JIANGSU HENGRUI MEDICINE CO., LTD., priority 2020, dated 2025).

Assays:
[1] = molecular target: T1, CYP3A4 (Homo sapiens (Human), UniProt P08684); experiment: Inhibition of site of metabolism of testosterone in human liver microsome CYP3A4; format: in vitro ADME; details: testosterone substrate
Description: (§1) • 1. Phosphate buffer (20×PBS, purchased from Sangon); • 2. NADPH (ACROS, A2646-71-1); • 3. Human liver microsome (Corning Gentest, Cat No, 452161, Lot No. 905002, Donor36); • 4. ABI QTrap 4000 LC-MS System (AB Sciex); • 5. ZORBAX Extend-C18, 3×50 mm, 3.5 μm (Agilent, USA); • 6. CYP probe substrate (testosterone, Vocko, CAS No. [58-22-0]/75 μM) and positive control inhibitor (ketoconazole, SIGMA, Cat No. K1003-100MG).
(§2) A 100 mM PBS buffer was prepared. A 100 mM PBS buffer was prepared. A 0.25 mg/mL microsome solution, a 7.5 mM MgCl2 and a 5 mM NADPH solution were prepared using the buffer. A 30 mM stock solution was diluted with DMSO to obtain 30 mM, 10 mM, 3 mM, 1 mM, 0.3 mM, 0.03 mM, 0.003 mM and 0 mM serial solutions I, which were further diluted 200-fold with phosphate buffer (PBS) to obtain serial test solutions II (150, 50, 15, 5, 1.5, 0.15, 0.015 and 0 μM). A testosterone working solution was diluted with PBS to 375 μm.
(§3) 40 μL of a 0.25 mg/mL microsome solution prepared in 7.5 mM MgCl2 and 20 μL of each of the 375 μM testosterone working solution and the compound working solutions (150, 50, 15, 5, 1.5, 0.15, 0.015 and 0 μM) were measured out and well mixed. Ketoconazole at the same concentration was used in place of the compounds as a positive control group. The mixtures were pre-incubated […] at 37° C. for 5 min at the same time. After 5 minutes, 20 μL of NADPH was added to each well to start reactions. The mixtures were incubated for 30 min. After 30 minutes, 250 μL of internal standard-containing acetonitrile was added to all the samples. The mixtures were well mixed, shaken at 800 rpm for 10 min, and then centrifuged at 3700 rpm for 10 min. 100 μL of the supernatant and 80 μL of ultrapure water were well mixed and subjected to LC-MS/MS analysis.
The IC50 values of the drugs for the site of metabolism of testosterone in CYP3A4 were calculated using Graphpad Prism and are shown in Table 6.

[2] = molecular target: T1, CYP3A4; experiment: Inhibition of site of metabolism of midazolam in human liver microsome CYP3A4; format: in vitro ADME; details: midazolam substrate
Description: as §1, with “9050002, Donor, 36);” for “905002, Donor36);”, “(midazolam, TRC, M343000/3” for “(testosterone, Vocko, CAS No. [58-22-0]/75”
as §2, with “A” for “A 100 mM PBS buffer was prepared. A”, “midazolam” for “testosterone”, “15 μM.” for “375 μm.”
as §3, with “of the 15 μM midazolam” for “of the 375 μM testosterone”, “15 μM midazolam working solution” for “375 μM testosterone working solution”, “30 min. Duplicate samples were set for all of the incubated samples. After 30” for “30 min. After 30”
The IC50 values of the drugs for the site of metabolism of midazolam in CYP3A4 were calculated using Graphpad Prism and are shown in Table 5.

[3] = molecular target: hERG potassium channels (Homo sapiens (Human), UniProt Q12809); experiment: Blocking of hERG potassium currents (automated patch clamp, HEK293-hERG); format: cell-based; details: HEK293-hERG stable cell strain
Sequence of hERG potassium channels (Q12809 whole entry): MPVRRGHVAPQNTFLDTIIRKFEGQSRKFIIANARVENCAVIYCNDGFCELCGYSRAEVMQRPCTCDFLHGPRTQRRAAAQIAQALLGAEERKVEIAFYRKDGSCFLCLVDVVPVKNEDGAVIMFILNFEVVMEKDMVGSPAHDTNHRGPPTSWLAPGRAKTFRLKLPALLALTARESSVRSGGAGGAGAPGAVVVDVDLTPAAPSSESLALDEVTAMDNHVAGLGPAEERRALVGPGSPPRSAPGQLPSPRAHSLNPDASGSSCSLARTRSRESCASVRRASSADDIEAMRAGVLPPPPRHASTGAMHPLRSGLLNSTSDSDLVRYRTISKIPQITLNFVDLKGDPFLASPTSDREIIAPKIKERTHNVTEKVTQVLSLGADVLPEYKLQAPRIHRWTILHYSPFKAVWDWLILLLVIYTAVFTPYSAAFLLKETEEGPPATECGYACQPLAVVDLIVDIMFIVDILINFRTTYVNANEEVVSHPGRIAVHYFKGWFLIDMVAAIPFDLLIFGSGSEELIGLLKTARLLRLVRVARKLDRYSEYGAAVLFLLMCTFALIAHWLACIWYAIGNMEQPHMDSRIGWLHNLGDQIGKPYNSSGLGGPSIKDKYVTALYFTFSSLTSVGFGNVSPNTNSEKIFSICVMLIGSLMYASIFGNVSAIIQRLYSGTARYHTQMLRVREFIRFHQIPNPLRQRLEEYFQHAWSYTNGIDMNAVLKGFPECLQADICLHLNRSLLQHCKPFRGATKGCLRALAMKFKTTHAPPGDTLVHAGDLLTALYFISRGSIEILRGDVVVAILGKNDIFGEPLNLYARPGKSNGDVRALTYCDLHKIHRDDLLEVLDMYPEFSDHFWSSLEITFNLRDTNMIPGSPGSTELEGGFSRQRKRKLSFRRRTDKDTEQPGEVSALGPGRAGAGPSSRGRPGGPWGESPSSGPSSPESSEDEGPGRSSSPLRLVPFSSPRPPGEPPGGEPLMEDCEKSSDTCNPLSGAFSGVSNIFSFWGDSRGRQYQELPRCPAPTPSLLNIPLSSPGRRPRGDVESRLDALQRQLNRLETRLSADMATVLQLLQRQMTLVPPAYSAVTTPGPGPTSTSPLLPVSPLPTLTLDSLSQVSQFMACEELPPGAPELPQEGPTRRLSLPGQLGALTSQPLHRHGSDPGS
Description: The blocking of hERG potassium currents by the compounds disclosed herein was tested in a stable cell strain transfected with hERG potassium channels using automated patch clamp.
An HEK293-hERG stable cell strain was subcultured in an MEM/EBSS medium (10% FBS, 400 μg/mL G418, 1% MEM non-essential amino acid solution (100×), 1% sodium pyruvate solution) at a density of 1:4, and an automated patch clamp experiment was conducted between hour 48 and hour 72 after the start of the culture. On the day of the experiment, the cells were digested with 0.25% trypsin, then centrifuged, collected, and resuspended in an extracellular fluid (140 mM NaCl, 4 mM KCl, 1 mM MgCl2, 2 mM CaCl2), 5 mM D-glucose monohydrate, 10 mM Hepes, pH 7.4, 298 mOsm) to form a cell suspension. The cell suspension was placed on the cell bank of the Patchliner instrument, which then applied the cells to a chip (NPC-16) by means of a negative pressure controller. The negative pressure drew individual cells to the wells of the chip. […] Data were recorded and analyzed using the HEAK Patchmaster, HEAK EPC10 patch clamp amplifier (Nanion), Pathliner software and Pathcontrol HT software, and the currents of the compounds at each concentration and the current of the blank control were analyzed.

T1 sequence (P08684 whole entry): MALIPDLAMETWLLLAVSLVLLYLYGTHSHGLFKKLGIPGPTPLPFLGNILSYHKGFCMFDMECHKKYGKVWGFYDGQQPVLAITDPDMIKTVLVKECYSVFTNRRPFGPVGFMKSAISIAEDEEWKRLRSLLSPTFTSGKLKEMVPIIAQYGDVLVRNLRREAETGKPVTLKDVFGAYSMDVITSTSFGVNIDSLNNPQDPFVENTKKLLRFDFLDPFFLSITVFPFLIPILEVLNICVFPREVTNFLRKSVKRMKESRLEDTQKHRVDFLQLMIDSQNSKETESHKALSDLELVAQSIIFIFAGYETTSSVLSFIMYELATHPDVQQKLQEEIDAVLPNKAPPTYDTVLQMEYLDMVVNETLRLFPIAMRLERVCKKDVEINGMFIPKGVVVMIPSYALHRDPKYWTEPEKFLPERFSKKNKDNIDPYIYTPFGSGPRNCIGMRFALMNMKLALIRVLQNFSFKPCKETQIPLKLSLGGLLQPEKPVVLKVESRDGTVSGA

IC50 [1] | IC50 [2] | Structure (SMILES) | IC50 [3]
15.5 µM |  | C[C@@H]1Cc2cc3c(cc2[C@@H](c2ccc(N[C@H]4CCN(CCCF)C4)cn2)N1CC(F)(F)CO)OCO3 [Example 4, 2,2-Difluoro-3-((5S,7R)-5-(5-(((S)-1-(3-fluoropropyl)pyrrolidin-3-yl)amino)pyridin-2-yl)-7-methyl-7,8-dihydro-[1,3]dioxolo[4,5-g]isoquinolin-6(5H)-yl)propan-1-ol] | 
23.8 µM | 8.18 µM | [2H]C1([2H])Oc2cc3c(cc2O1)[C@@H](c1ccc(N[C@H]2CCN(CCCF)C2)cn1)N(CC(F)(F)CO)[C@H](C)C3 [Example 12, 2,2-Difluoro-3-((5S,7R)-5-(5-(((S)-1-(3-fluoropropyl)pyrrolidin-3-yl)amino)pyridin-2-yl)-7-methyl-7,8-dihydro-[1,3]dioxolo[4,5-g]isoquinolin-6(5H)-yl-2,2-d2)propan-1-ol] | > 30 µM

The remaining lines, values behind:

Structure (SMILES) | IC50 [1] | IC50 [2] | IC50 [3]
C[C@@H]1Cc2cc3c(cc2[C@@H](c2ccc(N[C@H]4CCN(CCCF)C4)cc2)N1CC(F)(F)F)OCO3 [Example 1, (S)-1-(3-fluoropropyl)-N-(4-((5R,7R)-7-methyl-6-(2,2,2-trifluoroethyl)-5,6,7,8-tetrahydro-[1,3]dioxolo[4,5-g]isoquinolin-5-yl)phenyl)pyrrolidin-3-amine] | 7.31 µM | 15.8 µM | 
C[C@@H]1Cc2cc3c(cc2[C@@H](c2c(F)cc(N[C@H]4CCN(CCCF)C4)cc2F)N1CC(F)(F)F)OCO3 [Example 2, (S)—N-(3,5-difluoro-4-((5S,7R)-7-methyl-6-(2,2,2-trifluoroethyl)-5,6,7,8-tetrahydro-[1,3]dioxolo[4,5-g]isoquinolin-5-yl)phenyl)-1-(3-fluoropropyl)pyrrolidin-3-amine] | > 30 µM | > 30 µM | 
C[C@@H]1Cc2cc3c(cc2[C@@H](c2ccc(N[C@H]4CCN(CCCF)C4)cc2)N1CC(F)(F)CO)OCO3 [Example 3, 2,2-Difluoro-3-((5R,7R)-5-(4-(((S)-1-(3-fluoropropyl)pyrrolidin-3-yl)amino)phenyl)-7-methyl-7,8-dihydro-[1,3]dioxolo[4,5-g]isoquinolin-6(5H)-yl)propan-1-ol] | 14.6 µM | 10 µM | 
C[C@@H]1Cc2cc3c(cc2[C@@H](c2ncc(N[C@H]4CCN(CCCF)C4)cc2F)N1CC(F)(F)CO)OCO3 [Example 11, 2,2-Difluoro-3-((5S,7R)-5-(3-fluoro-5-(((S)-1-(3-fluoropropyl)pyrrolidin-3-yl)amino)pyridin-2-yl)-7-methyl-7,8-dihydro-[1,3]dioxolo[4,5-g]isoquinolin-6(5H)-yl)propan-1-ol] |  |  | > 30 µM
